Laboratory results taken from patent US20030083324A1, “Photosensitizing ointment” (CeramOptec Industries, Inc., priority 2000, published 2003).

Details: especially when diluted with cream to <20% (w/w)
Excerpt: The phototoxic compounds can be mixed with the carrier in a solubilized form.

Compound: COCCO [2-methoxy ethanol]
- toxicity to human skin: no toxicity
